According to publication PMC12461339, “Benzoylselenoureas: A Novel Dual-Action Inhibitor Targeting Fungal Growth and Urease Activity in Cryptococcus neoformans” (ACS Omega, 2025):
In brackets after ≈: the same amount, converted by molar mass. Several values for one entry are separate records, joined by “and”; a condition that tells them apart may be missing. Identical values can stand only once. Like-named read-outs stand apart in the source and are kept apart here.

Tests used:
C. neoformans H99 [1] = assay: Broth microdilution antifungal assay (MIC) in RPMI or urea medium; format: cell-based; settings: Cryptococcus neoformans
Description: (§1) C. neoformans H99 (or ATCC 208821), a standard strain, was used to evaluate the antifungal activity of BSU1-BSU11 and BTU1-BTU11 compounds using the broth microdilution method. The assay was performed in two different culture media: the standard medium RPMI 1640 buffered with […] (RMPI), and the Christensen broth (urea medium: 1 g/L peptone, 1 g/L dextrose, 5 g/L sodium chloride, 2 g/L potassium phosphate, 20 g/L urea, 12 mg/L phenol red, pH 7.0). The compounds were dissolved in dimethyl sulfoxide (DMSO) and diluted in both media, obtaining final concentrations from 0.03 to 128 mg/L in a 96-well plate and final DMSO concentration below 0.5%, considered nontoxic. For assay, yeasts were distributed in each well to obtain a final inoculum of 0.5–2.5 × 10^3 CFU/mL, and the plate was incubated at 35 °C for 48 h.
(§2) The MIC values were determined in both media and were defined as the lowest concentrations of BSU1-BSU11 and BTU1-BTU11 that inhibited 50% of fungal growth visually compared with untreated yeasts (growth control). In addition, the urease activity was indicated by medium color change from orange to pink due to ammonia production and the MICure was defined as the lowest concentration that inhibited the urease activity by visual inspection in urea medium with no color changes. For both assays, two controls were included: untreated yeast group for observation of fungal growth pattern or intracellular urease activity, and wells containing only medium for assay sterility control.

yeast urease activity = molecular target: T1, yeast urease activity (Cryptococcus neoformans, UniProt O13465); assay: Inhibition of yeast urease activity in urea (Christensen) medium, colour change (MICure); format: cell-based
T1 construct: endogenous in cells; host or cells: Cryptococcus neoformans H99 (ATCC 208821) yeasts in Christensen urea broth
Description: The inhibitory activity against yeast urease was assessed using Christensen’s medium, which contains urea to induce URE1 gene expression. […] Even in the presence of fungal growth, inhibition of urease activity was evidenced by the absence of medium color change, indicating suppressed ammonia production.
as §1, §2

C. neoformans H99 [2] = assay: Minimum fungicidal concentration by subculturing after MIC reading; format: cell-based; settings: Cryptococcus neoformans
Description: After MIC readings, the MFC values were determined by subculturing, at 35 °C for 48 h, of all concentrations that inhibited the fungal growth; and then MFC was defined as the lowest concentration of the compound capable of reducing ≥99% viability of the initial fungal inoculum. ,

C. neoformans urease = molecular target: T2, C. neoformans urease (Cryptococcus neoformans, UniProt O13465); assay: Urease activity in crude protein extract, indophenol method; format: biochemical; settings: ureIC50, BSU series
T2 construct: endogenous in cells; host or cells: Cryptococcus neoformans H99, lysed by sonication; dialysed and lyophilised soluble fraction (total protein)
Description: C. neoformans H99 yeasts were cultivated in 100 mL of Christensen broth for 72 h at 35 °C by shaking at 200 rpm for the obtention of urease as previously described. Briefly, the yeasts were ruptured using a lysis buffer (40 mM Tris-HCl, 20 mM dithiothreitol, 4% Triton X-100, 1 mM ethylenediaminetetraacetic acid, 2 mM phenylmethylsulfonyl fluoride, protease inhibitor cocktail) and an ultrasonic sonicator. After centrifugation, the soluble fraction was dialyzed in a dialysis membrane submerged in 10 mM sodium phosphate buffer, pH 7.0; the sample was lyophilized and stored at −20 °C. Before the assay, the sample was resuspended in 1 mL of sodium phosphate buffer (10 mM, pH 7.0), and the total protein was quantified by the Bradford method.
The urease activity was determined by the indophenol method. In a 96-well microplate, 10 μL of 100 mM urea was added to 45 μL of total protein and 45 μL of BSU1-BSU11 (concentrations of 0.06–1000 μg/L) in phosphate buffer. The reaction was maintained for 10 min under shaking at 600 rpm, at room temperature. Then, 45 μL of solution A (1% phenol; 0.005% sodium nitroprusside) and 70 μL of solution B (0.5% sodium hydroxide; 0.1% sodium hypochlorite) were immediately added to the wells in the dark and incubated for 5 min at 50 °C under shaking at 600 rpm. Urease activity was quantified by measuring absorbance at 670 nm. The inhibitory concentration capable of inhibiting 50% of urease activity (ureIC50) was determined by nonlinear regression calculation using the GraphPad Prism 5.0 software.

C. neoformans = test system: C. neoformans; design: method as in PMID 36960287; settings: against C. neoformans; cited from earlier work
[3] = H99, 48 h, read-out: MIC RPMI, BSU series, 50% inhibition of fungal growth, RPMI medium, 35 °C, 48 h
[4] = H99, 48 h, read-out: MIC urea, BSU series, 50% inhibition of fungal growth, urea medium, 35 °C, 48 h
[5] = H99, Table S1, RPMI medium, C. neoformans H99
[6] = H99, Table S1, urea medium, C. neoformans H99
[7] = BSU series, 100% inhibition of yeast urease activity in urea medium
[8] = Table S1, urea medium, 100% inhibition of yeast urease activity
[9] = H99, BSU series, after assay in RPMI medium, ≥99% reduction of viability
[10] = H99, Table S1, RPMI medium line
[11] = H99, Table S1, urea medium line

T1 sequence (O13465 whole entry): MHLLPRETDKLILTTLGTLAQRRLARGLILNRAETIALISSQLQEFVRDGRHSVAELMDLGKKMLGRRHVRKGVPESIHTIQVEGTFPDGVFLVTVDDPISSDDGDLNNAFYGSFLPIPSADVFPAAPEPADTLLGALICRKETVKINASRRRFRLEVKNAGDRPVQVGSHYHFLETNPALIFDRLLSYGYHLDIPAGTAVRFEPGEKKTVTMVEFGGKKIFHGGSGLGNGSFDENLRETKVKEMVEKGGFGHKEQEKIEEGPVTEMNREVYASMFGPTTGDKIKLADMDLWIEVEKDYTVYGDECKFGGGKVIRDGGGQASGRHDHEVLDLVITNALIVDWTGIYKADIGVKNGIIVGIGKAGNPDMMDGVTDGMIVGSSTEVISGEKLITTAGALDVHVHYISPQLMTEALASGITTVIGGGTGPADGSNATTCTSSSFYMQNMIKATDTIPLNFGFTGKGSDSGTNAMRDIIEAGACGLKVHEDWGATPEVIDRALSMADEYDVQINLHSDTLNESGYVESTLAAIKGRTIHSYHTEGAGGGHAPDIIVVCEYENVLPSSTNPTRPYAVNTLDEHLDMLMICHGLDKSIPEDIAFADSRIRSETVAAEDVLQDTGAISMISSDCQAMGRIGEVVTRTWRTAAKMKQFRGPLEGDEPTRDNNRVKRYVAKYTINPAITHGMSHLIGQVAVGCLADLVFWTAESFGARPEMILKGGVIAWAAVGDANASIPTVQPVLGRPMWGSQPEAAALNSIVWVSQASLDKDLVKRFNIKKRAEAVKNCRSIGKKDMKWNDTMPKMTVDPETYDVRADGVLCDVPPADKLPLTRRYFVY
T2 sequence (O13465 whole entry): as above

SMILES | MIC (C. neoformans H99 [1]; [3]) [µg/mL] | MIC (C. neoformans H99 [1]; [4]) [µg/mL] | MIC (C. neoformans H99 [1]; [5]) [µg/mL] | MIC (C. neoformans H99 [1]; [6]) [µg/mL] | MICURE (yeast urease activity; [7]) [mg/L] | MICURE (yeast urease activity; [8]) [mg/L] | MFC (C. neoformans H99 [2]; [9]) [µg/mL] | MFC (C. neoformans H99 [2]; [10]) [µg/mL] | MFC (C. neoformans H99 [2]; [11]) [µg/mL] | IC50 (C. neoformans urease) | MIC (C. neoformans) [µg/mL]
O=C(NC(=[Se])Nc1cccc(Br)c1)c1ccccc1 [BSU9] | 4 (≈ 10.5 µM) | 0.12 (≈ 0.314 µM) | 1 (≈ 2.62 µM) | 0.12 (≈ 0.314 µM) | 0.06 | 0.12 | 4 (≈ 10.5 µM) | 1 (≈ 2.62 µM) | 0.5 (≈ 1.31 µM) | 2.31 nM and 2.3 nM | 
O=C(NC(=[Se])Nc1ccccc1[N+](=O)[O-])c1ccccc1 [BSU10] | 8 (≈ 23 µM) | 1 (≈ 2.87 µM) | 8 (≈ 23 µM) | 1 (≈ 2.87 µM) | 1 | 1 | 16 (≈ 45.9 µM) | 16 (≈ 45.9 µM) | 2 (≈ 5.74 µM) | 8.68 nM and 8.67 nM | 
O=C(NC(=[Se])Nc1cccc([N+](=O)[O-])c1)c1ccccc1 [BSU11] | 32 (≈ 91.9 µM) | 1 (≈ 2.87 µM) | 16 (≈ 45.9 µM) | 1 (≈ 2.87 µM) | 1 | 1 | 64 (≈ 184 µM) | > 16 | 1 (≈ 2.87 µM) | 7.91 nM and 7.93 nM | 
CCCCNC(=S)NC(=O)c1ccccc1 [Compound 4, N-(butylcarbamothioyl)benzamide] |  |  |  |  |  |  |  |  |  |  | 31.25 to 62.5
